Test results reported in patent US12344610B2, “APOL1 inhibitors and methods of use” (Maze Therapeutics, Inc., priority 2022, dated 2025).

Key:
[1] = system: HEK293 cells overexpressing APOL1 G2; assay: APOL1 G2 HEK293 cell rescue assay (reversal of cell death caused by overexpression of APOL1); type: cell-based; settings: Homo sapiens, HEK293, HEK293 overexpressing APOL1 G2; geometric mean of at least 2 assay runs; † = single assay run
How it was run: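 EC50 is the half-maximal effective concentration for reversing cell death driven by APOL1 G2 overexpression in HEK293 cells. Reported as geometric mean of at least 2 runs on separate days, each run averaging duplicate wells per plate; some values from a single run.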

[2] = system: Trypanosoma brucei Lister 427 VSG221 with APOL1 G0 recombinant protein; assay: APOL1 G0 trypanosome cell rescue assay (Example B5); type: cell-based; settings: Trypanosoma brucei, 20 h, read-out: APOL1 G0 Trypanosome Rescue EC50, Trypanosoma brucei Lister 427 VSG221 with APOL1 G0 recombinant protein, 20 hours, CellTiter-Glo; geometric mean of at least 2 assay runs; † = single assay run
How it was run: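 Mature APOL1 (residues 28-398, E. coli-expressed, His-tag removed by TEV) was added as a 2 μg/mL solution to T. brucei Lister 427 VSG221 in modified HMI-9 medium at 250 cells/well, with duplicate 11-point 2-fold compound dilutions (0.4% DMSO). After 20 h at 37° C, 5% CO2, viability was read by CellTiter-Glo luminescence.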

Row | SMILES | EC50 [1] | EC50 [2]
1 | CNC(=O)N1CCc2cc(OCCN3CCC4(CC3)C(=O)Nc3ccc(Cl)cc34)ccc2C1 [Compound 245, 6-(2-{5-chloro-2-oxo-1,2-dihydrospiro[indole-3,4′-piperidin]-1′-yl}ethoxy)-N-methyl-1,2,3,4-tetrahydroisoquinoline-2-carboxamide] | 139 nM | 265 nM
2 | Cn1c(=O)[nH]c2cc(OCCN3CCC4(CC3)C(=O)Nc3ccc(Cl)cc34)cnc21 [Compound 247, 5-chloro-1′-[2-({3-methyl-2-oxo-1H,2H,3H-imidazo[4,5-b]pyridin-6-yl}oxy)ethyl]-1,2-dihydrospiro[indole-3,4′-piperidin]-2-one] | 92 nM | 186 nM
3 | O=C1Nc2ccc(Cl)cc2C12CCN(CCOc1ccc(S(=O)(=O)C3(CO)CC3)nc1)CC2 [Compound 248, 5-chloro-1′-{2-[(6-{[1-(hydroxymethyl)cyclopropyl]sulfonyl}pyridin-3-yl)oxy]ethyl}-1,2-dihydrospiro[indole-3,4′-piperidin]-2-one] | 58.4 nM | 86.2 nM
4 | NC(=O)c1ccc(OCCN2CCC3(CC2)C(=O)Nc2ccc(Cl)cc23)cc1C(F)F [Compound 249, 4-(2-{5-chloro-2-oxo-1,2-dihydrospiro[indole-3,4′-piperidin]-1′-yl}ethoxy)-2-(difluoromethyl)benzamide] | 26.8 nM | 53.8 nM
5 | N#Cc1ccc2c(c1)C1(CCN(CCOc3ccc(C(N)=O)c(C(F)F)c3)CC1)C(=O)N2 [Compound 250, 4-(2-{5-cyano-2-oxo-1,2-dihydrospiro[indole-3,4′-piperidin]-1′-yl}ethoxy)-2-(difluoromethyl)benzamide] | 49.2 nM | 445 nM
6 | CN1C(=O)C2(CCN(CCOc3ccc(C4(S(C)(=O)=O)COC4)cc3)CC2)c2cc(C#N)ccc21 [Compound 251, 1′-{2-[4-(3-methanesulfonyloxetan-3-yl)phenoxy]ethyl}-1-methyl-2-oxo-1,2-dihydrospiro[indole-3,4′-piperidine]-5-carbonitrile] | 125 nM | 903 nM
7 | CN(C)C(=O)C1(c2ccc(OCCN3CCC4(CC3)C(=O)Nc3ccc(C#N)cc34)cc2)COC1 [Compound 254, 3-[4-(2-{5-cyano-2-oxo-1,2-dihydrospiro[indole-3,4′-piperidin]-1′-yl}ethoxy)phenyl]-N,N-dimethyloxetane-3-carboxamide] | 175 nM | 695 nM
8 | CNC(=O)C1(c2ccc(OCCN3CCC4(CC3)C(=O)Nc3ccc(C#N)cc34)cc2)COC1 [Compound 255, 3-[4-(2-{5-cyano-2-oxo-1,2-dihydrospiro[indole-3,4′-piperidin]-1′-yl}ethoxy)phenyl]-N-methyloxetane-3-carboxamide] | 353 nM | 1380 nM
9 | O=C(c1c(F)cc(OCCN2CCC3(CC2)C(=O)Nc2ccc(Cl)cc23)cc1F)N1CCS(=O)(=O)CC1 [Compound 259, 4-[4-(2-{5-chloro-2-oxo-1,2-dihydrospiro[indole-3,4′-piperidin]-1′-yl}ethoxy)-2,6-difluorobenzoyl]-1λ^6-thiomorpholine-1,1-dione] | 37.5 nM | 68 nM
10 | CN1C(=O)C2(CCN(CCOc3cc(F)c(C(=O)N4CCS(=O)(=O)CC4)c(F)c3)CC2)c2cc(C#N)ccc21 [Compound 260, 1′-{2-[4-(1,1-dioxo-1λ^6-thiomorpholine-4-carbonyl)-3,5-difluorophenoxy]ethyl}-1-methyl-2-oxo-1,2-dihydrospiro[indole-3,4′-piperidine]-5-carbonitrile] | 119 nM | 274 nM
11 | CN1C(=O)C2(CCN(CCOc3ccc(C(=O)N4CCS(=O)(=O)CC4)c(C(F)(F)F)c3)CC2)c2cc(C#N)ccc21 [Compound 261, 1′-{2-[4-(1,1-dioxo-1λ^6-thiomorpholine-4-carbonyl)-3-(trifluoromethyl)phenoxy]ethyl}-1-methyl-2-oxo-1,2-dihydrospiro[indole-3,4′-piperidine]-5-carbonitrile] | 89 nM | 84 nM
12 | CS(=O)(=O)c1ccc(OCCN2CCC3(CC2)C(=O)N(CCO)c2ccc(Cl)cc23)cc1C(F)F [Compound 265, 5-chloro-1′-{2-[3-(difluoromethyl)-4-methanesulfonylphenoxy]ethyl}-1-(2-hydroxyethyl)-1,2-dihydrospiro[indole-3,4′-piperidin]-2-one] | 30 nM | 67.6 nM
13 | CS(=O)(=O)c1ccc(OCCN2CCC3(CC2)C(=O)N(CCO)c2ccc(C#N)cc23)cc1C(F)F [Compound 266, 1′-{2-[3-(difluoromethyl)-4-methanesulfonylphenoxy]ethyl}-1-(2-hydroxyethyl)-2-oxo-1,2-dihydrospiro[indole-3,4′-piperidine]-5-carbonitrile] | 104 nM | 236 nM
14 | O=C(c1ccc(OCCN2CCC3(CC2)C(=O)Nc2ccc(Cl)cc23)cc1C(F)(F)F)N1CCS(=O)(=O)CC1 [Compound 272, 4-[4-(2-{5-chloro-2-oxo-1,2-dihydrospiro[indole-3,4′-piperidin]-1′-yl}ethoxy)-2-(trifluoromethyl)benzoyl]-1λ^6-thiomorpholine-1,1-dione] | 93.4 nM | 58.9 nM
15 | CS(=O)(=O)N1CC2(CN(C(=O)c3ccc(OCCN4CCC5(CC4)C(=O)Nc4ccc(Cl)cc45)cc3F)C2)C1 [Compound 273, 5-chloro-1′-[2-(3-fluoro-4-{6-methanesulfonyl-2,6-diazaspiro[3.3]heptane-2-carbonyl}phenoxy)ethyl]-1,2-dihydrospiro[indole-3,4′-piperidin]-2-one] | 88.5 nM | 64.9 nM
16 | C[C@]1(O)C[C@@H](N2C(=O)CCc3cc(OCCN4CCC5(CC4)C(=O)Nc4ccc(C(F)F)cc45)cnc32)C1 [Compound 274, 5-(difluoromethyl)-1′-[2-({7-oxo-8-[(cis)-3-hydroxy-3-methylcyclobutyl]-5,6,7,8-tetrahydro-1,8-naphthyridin-3-yl}oxy)ethyl]-1,2-dihydrospiro[indole-3,4′-piperidin]-2-one] | 34 nM | 59.3 nM
17 | C[C@]1(O)C[C@@H](N2C(=O)CCc3cc(OCCN4CCC5(CC4)C(=O)Nc4ccc(Cl)cc45)cnc32)C1 [Compound 275, 5-chloro-1′-[2-({7-oxo-8-[(cis)-3-hydroxy-3-methylcyclobutyl]-5,6,7,8-tetrahydro-1,8-naphthyridin-3-yl}oxy)ethyl]-1,2-dihydrospiro[indole-3,4′-piperidin]-2-one] | 27 nM | 61.2 nM
18 | CS(=O)(=O)C1(c2ncc(OCCN3CCC4(CC3)C(=O)Nc3ccc(Cl)cc34)cn2)COC1 [Compound 276, 5-chloro-1′-(2-{[2-(3-methanesulfonyloxetan-3-yl)pyrimidin-5-yl]oxy}ethyl)-1,2-dihydrospiro[indole-3,4′-piperidin]-2-one] | 101 nM | 178 nM
19 | CS(=O)(=O)C1(c2ncc(OCCN3CCC4(CC3)C(=O)Nc3ccc(C#N)cc34)cc2F)CC1 [Compound 283, 1′-(2-{[5-fluoro-6-(1-methanesulfonylcyclopropyl)pyridin-3-yl]oxy}ethyl)-2-oxo-1,2-dihydrospiro[indole-3,4′-piperidine]-5-carbonitrile] | 99 nM | 216 nM
20 | CC(O)c1ncc(OCCN2CCC3(CC2)C(=O)Nc2ccc(Cl)cc23)cn1 (stereo not shown) [Compound 284, 5-chloro-1′-(2-{[2-(1-hydroxyethyl)pyrimidin-5-yl]oxy}ethyl)-1,2-dihydrospiro[indole-3,4′-piperidin]-2-one] | 199 nM | 808 nM
21 | C[C@]1(O)C[C@@H](N2C(=O)OCc3cc(OCCN4CCC5(CC4)C(=O)Nc4ccc(Cl)cc45)cnc32)C1 [Compound 289, 5-chloro-1′-[2-({2-oxo-1-[(cis)-3-hydroxy-3-methylcyclobutyl]-1H,2H,4H-pyrido[2,3-d][1,3]oxazin-6-yl]oxy)ethyl]-1,2-dihydrospiro[indole-3,4′-piperidin]-2-one] | 16.7 nM | 38.2 nM
22 | CC1(O)CN(c2ncc(OCCN3CCC4(CC3)C(=O)Nc3ccc(Cl)cc34)cn2)C1 [Compound 300, 5-chloro-1′-(2-{[2-(3-hydroxy-3-methylazetidin-1-yl)pyrimidin-5-yl]oxy}ethyl)-1,2-dihydrospiro[indole-3,4′-piperidin]-2-one] | 100 nM | 375 nM
23 | O=C1Nc2ccc(Cl)cc2C12CCN(CCOc1cnc(N3CC(O)C3)nc1)CC2 [Compound 301, 5-chloro-1′-(2-{[2-(3-hydroxyazetidin-1-yl)pyrimidin-5-yl]oxy}ethyl)-1,2-dihydrospiro[indole-3,4′-piperidin]-2-one] | 86 nM | 327 nM
24 | CS(=O)(=O)C1CN(c2ncc(OCCN3CCC4(CC3)C(=O)Nc3ccc(Cl)cc34)cn2)C1 [Compound 302, 5-chloro-1′-(2-{[2-(3-methanesulfonylazetidin-1-yl)pyrimidin-5-yl]oxy}ethyl)-1,2-dihydrospiro[indole-3,4′-piperidin]-2-one] | 98.1 nM | 356 nM
25 | CC(C)(O)c1ncc(OCCN2CCC3(CC2)C(=O)Nc2ccc(Cl)cc23)cn1 [Compound 305, 5-chloro-1′-(2-{[2-(2-hydroxypropan-2-yl)pyrimidin-5-yl]oxy}ethyl)-1,2-dihydrospiro[indole-3,4′-piperidin]-2-one] | 85.4 nM | 187 nM
26 | CC1(O)CN(c2nccc3cc(OCCN4CCC5(CC4)C(=O)Nc4ccc(Cl)cc45)cnc23)C1 [Compound 306, 5-chloro-1′-(2-{[8-(3-hydroxy-3-methylazetidin-1-yl)-1,7-naphthyridin-3-yl]oxy}ethyl)-1,2-dihydrospiro[indole-3,4′-piperidin]-2-one] | 110 nM | 37 nM
